From PubChem BioAssay AID1963825 (Molecular Pharmacology Branch, DTP, NCI, 2024)

Test: Anticancer human tumor 997537-175-T-J1-PDC patient-derived colon adenocarcinoma cell line growth inhibition [POLQ]
Conditions: 997537-175-T-J1-PDC complex spheroid viability, combination with POLQ inhibitors; for IC50: curve of first compound; for viability, T/C: stronger effect = lower value
In short: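 Patient-derived tumour cells were co-cultured with HUVEC and mesenchymal stem cells as multicellular spheroids at 37 °C. They were treated with POLQ inhibitors (novobiocin, ART-558, RP6685) alone or combined with other agents. Top concentrations were at or near clinical Cmax (otherwise 10 microM; SN-38 at 1 microM), decreasing in half-log steps.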

[1] = second compound 0.0316 µM, first compound 0.0316 µM
[2] = second compound 0.0316 µM, first compound 0.1 µM
[3] = second compound 0.0316 µM, first compound 0.316 µM
[4] = second compound 0.0316 µM, first compound 1 µM
[5] = second compound 0.1 µM, first compound 0.0316 µM
[6] = second compound 0.1 µM, first compound 0.1 µM
[7] = second compound 0.1 µM, first compound 0.316 µM
[8] = second compound 0.1 µM, first compound 1 µM
[9] = second compound 0.316 µM, first compound 0.0316 µM
[10] = second compound 0.316 µM, first compound 0.1 µM
[11] = second compound 0.316 µM, first compound 0.316 µM
[12] = second compound 0.316 µM, first compound 1 µM
[13] = second compound 1 µM, first compound 0.0316 µM
[14] = second compound 1 µM, first compound 0.1 µM
[15] = second compound 1 µM, first compound 0.316 µM
[16] = second compound 1 µM, first compound 1 µM
[17] = second compound 3.16 µM, first compound 0.0316 µM
[18] = second compound 3.16 µM, first compound 0.1 µM
[19] = second compound 3.16 µM, first compound 0.316 µM
[20] = second compound 3.16 µM, first compound 1 µM
[21] = second compound 10 µM, first compound 0.0316 µM
[22] = second compound 10 µM, first compound 0.1 µM
[23] = second compound 10 µM, first compound 0.316 µM
[24] = second compound 10 µM, first compound 1 µM
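Note: luminescence signal used as a surrogate for viable cells; spheroids exposed to drugs for seven days before readout.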

Question: Which results are given for `O=c1[nH]cc(F)c(=O)[nH]1` + Nc1ccc(C#CCN(C(=O)Cc2ncc(C(F)(F)F)cc2C(F)(F)F)c2ccc(F)cc2)nn1?
Answer: IC50 (second compound 0.0316 µM): > 10000 nM; IC50 (second compound 0.1 µM): > 10000 nM; IC50 (second compound 0.316 µM): > 10000 nM; IC50 (second compound 1 µM): > 10000 nM; IC50 (second compound 3.16 µM): > 10000 nM; IC50 (second compound 10 µM): > 10000 nM; viability, T/C [1]: 98.7%; viability, T/C [2]: 105%; viability, T/C [3]: 109%; viability, T/C [4]: 84.9%; viability, T/C (second compound 0.0316 µM, first compound 3.16 µM): 95.7%; viability, T/C (second compound 0.0316 µM, first compound 10 µM): 79%; viability, T/C [5]: 106%; viability, T/C [6]: 99.8%; viability, T/C [7]: 95.9%; viability, T/C [8]: 103%; viability, T/C (second compound 0.1 µM, first compound 3.16 µM): 82.6%; viability, T/C (second compound 0.1 µM, first compound 10 µM): 88.1%; viability, T/C [9]: 95%; viability, T/C [10]: 102%; viability, T/C [11]: 103%; viability, T/C [12]: 105%; viability, T/C (second compound 0.316 µM, first compound 3.16 µM): 85%; viability, T/C (second compound 0.316 µM, first compound 10 µM): 94.1%; viability, T/C [13]: 94.2%; viability, T/C [14]: 93.9%; viability, T/C [15]: 83.7%; viability, T/C [16]: 85.8%; viability, T/C (second compound 1 µM, first compound 3.16 µM): 73.5%; viability, T/C (second compound 1 µM, first compound 10 µM): 79.9%; viability, T/C [17]: 101%; viability, T/C [18]: 110%; viability, T/C [19]: 118%; viability, T/C [20]: 86.2%; viability, T/C (second compound 3.16 µM, first compound 3.16 µM): 88.6%; viability, T/C (second compound 3.16 µM, first compound 10 µM): 72.5%; viability, T/C [21]: 105%; viability, T/C [22]: 94.5%; viability, T/C [23]: 103%; viability, T/C [24]: 91.2%; viability, T/C (second compound 10 µM, first compound 3.16 µM): 84.1%; viability, T/C (second compound 10 µM, first compound 10 µM): 81%

Question: What does the source list for `COc1cccc(OCCCN)c1-c1cc(Nc2cnc(C#N)cn2)n[nH]1` + Nc1ccc(C#CCN(C(=O)Cc2ncc(C(F)(F)F)cc2C(F)(F)F)c2ccc(F)cc2)nn1?
Answer: IC50 (second compound 0.0316 µM): 110 nM; IC50 (second compound 0.1 µM): 72 nM; IC50 (second compound 0.316 µM): 54.4 nM; IC50 (second compound 1 µM): 21.3 nM; IC50 (second compound 3.16 µM): 48.8 nM; IC50 (second compound 10 µM): 20.9 nM; viability, T/C (second compound 0.0316 µM, first compound 0.00316 µM): 100%; viability, T/C (second compound 0.0316 µM, first compound 0.01 µM): 90.2%; viability, T/C [1]: 70.5%; viability, T/C [2]: 42.3%; viability, T/C [3]: 44%; viability, T/C [4]: 17.7%; viability, T/C (second compound 0.1 µM, first compound 0.00316 µM): 89.1%; viability, T/C (second compound 0.1 µM, first compound 0.01 µM): 96.8%; viability, T/C [5]: 70.5%; viability, T/C [6]: 43%; viability, T/C [7]: 22.2%; viability, T/C [8]: 23.2%; viability, T/C (second compound 0.316 µM, first compound 0.00316 µM): 103%; viability, T/C (second compound 0.316 µM, first compound 0.01 µM): 89.5%; viability, T/C [9]: 61.4%; viability, T/C [10]: 40.5%; viability, T/C [11]: 18%; viability, T/C [12]: 41.9%; viability, T/C (second compound 1 µM, first compound 0.00316 µM): 89.8%; viability, T/C (second compound 1 µM, first compound 0.01 µM): 61.1%; viability, T/C [13]: 50.3%; viability, T/C [14]: 21.8%; viability, T/C [15]: 40.6%; viability, T/C [16]: 36.2%; viability, T/C (second compound 3.16 µM, first compound 0.00316 µM): 88.4%; viability, T/C (second compound 3.16 µM, first compound 0.01 µM): 90.8%; viability, T/C [17]: 65.8%; viability, T/C [18]: 24.2%; viability, T/C [19]: 20.8%; viability, T/C [20]: 21.1%; viability, T/C (second compound 10 µM, first compound 0.00316 µM): 84%; viability, T/C (second compound 10 µM, first compound 0.01 µM): 85.1%; viability, T/C [21]: 30.4%; viability, T/C [22]: 24.9%; viability, T/C [23]: 34.1%; viability, T/C [24]: 20.5%
